Earlier results in patent publication US20030134332A1, “Diagnosis of endothelial dysfunction by nitric oxide bioactivity index” (priority 2001, published 2003).

Legend:
[1] = tested on: wound healing in diabetic mice
[2] = tested on: plasma isoprostane (oxidant stress marker); conditions: diabetic men, 600 mg twice daily for seven days

Substance: 2-(2,3-dihydro-5-acetoxy-4,6,7-trimethylbenzofuranyl) acetic acid [raxofelast]
- effect on wound healing [1]: stimulates wound healing
- fall of plasma isoprostane levels in diabetics [2]: 50%
